pKd: −log10 of the molar value.
How the values were obtained:
Test in all cases: SSM electrophysiology, kobs of pre-steady state current vs concentration
Type in all cases: biochemical
DgoT [1] = molecular target: T1, DgoT (Escherichia coli, UniProt A0A0H2Z574)
T1 sequence (A0A0H2Z574 1-445): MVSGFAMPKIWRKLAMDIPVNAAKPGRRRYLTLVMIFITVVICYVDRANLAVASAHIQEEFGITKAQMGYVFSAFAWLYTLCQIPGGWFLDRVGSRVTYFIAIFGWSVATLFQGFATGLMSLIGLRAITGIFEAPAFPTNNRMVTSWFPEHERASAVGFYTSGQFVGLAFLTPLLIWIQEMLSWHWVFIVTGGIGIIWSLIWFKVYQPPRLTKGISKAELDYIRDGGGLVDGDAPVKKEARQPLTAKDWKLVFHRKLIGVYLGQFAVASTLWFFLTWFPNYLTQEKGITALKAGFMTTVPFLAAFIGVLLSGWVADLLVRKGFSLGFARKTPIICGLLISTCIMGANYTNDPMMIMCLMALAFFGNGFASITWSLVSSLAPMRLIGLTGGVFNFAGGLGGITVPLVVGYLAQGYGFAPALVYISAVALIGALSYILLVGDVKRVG
Description: (§1) SSM electrophysiology, kobs of pre-steady state current vs concentration on DgoT

DgoT [2] = molecular target: T2, DgoT (Escherichia coli, UniProt A0A0H2Z574, D46N)
T2 sequence (A0A0H2Z574 1-445 D46N): T1 sequence (A0A0H2Z574 1-445)
Description: as §1

DgoT [3] = molecular target: T3, DgoT (Escherichia coli, UniProt A0A0H2Z574, E133Q)
T3 sequence (A0A0H2Z574 1-445 E133Q): T1 sequence (A0A0H2Z574 1-445)
Description: as §1

DgoT [4] = molecular target: T4, DgoT (Escherichia coli, UniProt A0A0H2Z574, R126Q)
T4 sequence (A0A0H2Z574 1-445 R126Q): T1 sequence (A0A0H2Z574 1-445)
Description: as §1

O=C(O)[C@H](O)[C@@H](O)[C@@H](O)[C@H](O)CO [D-galactonate]
pKd (DgoT [1]): 1.82
pKd (DgoT [2]): 1.96
pKd (DgoT [3]): 1.82
pKd (DgoT [4]): 1.66
